Results on one compound are retold here after patent publication US6248718A, “Lesion-directed dry dosage forms of antibacterial agents for the treatment of acute mucosal infections of the oral cavity” (priority 1999, dated 2001).

Experiment [1] relates to Staphylococcus aureus ATCC 29213. Description: MIC for standard strain used in saliva antibiotic assay (Examples VII-IX). The settings on record: Staphylococcus aureus, ATCC29213; nutrient broth, 37° C., 18 hours. In kind it is cell-based. The method, then: Each filtered mixture in test tube was inoculated with 0.1 ml of a 1:1,000 dilution of a 12 hour broth culture of Staphylococcus aureus ATCC 29213.
A row of 6 test tubes each containing 2 ml of nutrient broth with decreasing concentrations of penicillin G potassium from 6.2 to 0.16 mcg/ml, using a serial double dilution method described in a., was prepared and similarly inoculated with 0.1 ml broth culture of Staphylococcus aureus ATCC 29213 as the standard.
All test tubes were incubated at 37° C. for 18 hours and observed for bacterial growth against an inoculated broth containing neither antibiotic nor saliva samples.
In this study, the drug powder was suspended in one teaspoonful of water and swallowed by the test subjects two hours after breakfast, followed by drinking an 8 Oz. glass of water. The test subjects refrained from drinking or eating for the next three hours. Six samples of saliva were collected from each subject at 30-minute intervals in succession in the next three hours. An aliquot of 0.2 ml from each saliva sample was transferred to 3.8 ml of nutrient broth. The mixture of the latter was forced to pass a bacterial filter. Two (2) ml of the bacteria-free filtrate was pipetted out into a sterile test tube and inoculated with 0.1 ml of a 1:1,000 dilution of a 12 hours broth culture of Staphylococcus aureus ATCC 29213 and incubated at 37° C. for 18 hours. […]

Experiment [2] in a line: Healing of canker sores in patients (Example VI). The settings on record: 50 mg four times a day, four days course, six patients. In kind it is in vivo, human. How it is done:
Six (6) adult, otherwise healthy patients suffering from recurrent minor canker sores were selected for this study from July 10 to Nov. 12, 1998. The drug substance used for this study was crystalline penicillin G potassium salt, U.S.P. grade, purchased from Sigma Chemical Co., St. Louis, Mo. 63178 (Lot No. 57H1195).
On the first or the second day after the patients noticed the formation of the canker ulcers, 50 mg of penicillin G potassium was administered topically with a spatula or the handle of a teaspoon as dry powder directly over the canker ulcers, four times a day, i.e. after breakfast, after lunch, after supper and before bed time. The patients were advised to retain the antibiotic powder and its concentrated solution in a small pocket of saliva at the site of the ulcer and to avoid its excessive dilution by saliva from other parts of the oral cavity for one hour after each application of the antibiotic powder. No food or drink was allowed during this one-hour period.

Regarding `CC1(C)S[C@@H]2[C@H](NC(=O)Cc3ccccc3)C(=O)N2[C@H]1C(=O)O` [penicillin G potassium], the minimal inhibitory concentration (MIC) in experiment [1] was determined as 0.75 µg/mL. The “healing of canker sores” value in experiment [2] is reported as “healed completely”.

By MIC is commonly meant the lowest concentration found to suppress growth. Read a low MIC as greater potency.
